Data from PMC5983811, “Protein Tyrosine Phosphatase 1B Inhibition and Glucose Uptake Potentials of Mulberrofuran G, Albanol B, and Kuwanon G from Root Bark of Morus alba L. in Insulin-Resistant HepG2 Cells: An In Vitro and In Silico Study” (International Journal of Molecular Sciences, 2018).

Legend:
[1] = Cytotoxicity in HepG2 cells (MTT assay); format: cell-based; details: human, read-out: viable cell %
Protocol: In order to determine safe concentrations for cell experiments, the cytotoxicity of our test compounds in HepG2 cells was evaluated using an 3-(4,5-dimethylthiazol-2-yl)-2,5-diphenyltetrazolium bromide (MTT) assay. […] However, at 10 µM, the level of toxicity was high for 1 (viable cell %; 36), followed by 2 (viable cell %; 73) and 3 (viable cell %; 85). Therefore, 1.25, 2.5, and 5 µM concentrations were used in further cell experiments.
(§1) HepG2 (human hepatocarcinoma) cells, purchased from the American Type Culture Collection (HB-8065; Manassas, VA, USA), were maintained in 10% FBS MEM at 37 °C in a humidified atmosphere with 5% CO2. Medium was changed every 48 h. Cytotoxicity was evaluated using the MTT assay. Following the method previously described, insulin-resistant HepG2 cell model was established. All the other experiment conditions and procedures were similar to those reported in our previous paper.

[2] = test system: insulin-resistant HepG2 cells; assay: Glucose uptake assay (2-NBDG) in insulin-resistant HepG2 cells; format: cell-based, human
Protocol: as §1
The glucose uptake rate in insulin-resistant HepG2 cells was assessed using the fluorescent D-glucose analog 2-NBDG. Once the induction of insulin resistance was accomplished, cell solutions in the wells were substituted with different concentrations of 1–3 or a positive control, rosiglitazone (10 µM), prepared in serum-free MEM (SFMEM) in respective groups. After 24 h incubation with samples, the media in the wells was replaced with 100 nM insulin diluted in SFMEM and incubated for 30 min. Cells were then incubated with 40 μM 2-NBDG for 30 min and washed with ice-cold PBS. The fluorescence intensity of 2-NBDG was measured on a fluorescence microplate reader (FL ×800, Bio-Tek Instruments, Inc., Winooski, VT, USA) at 485 nm excitation and 528 nm emission wavelengths. Six replicate wells were established, and each experiment was repeated three times.

PTP1B expression = PTP1B expression level in insulin-resistant HepG2 cells (Western blot); format: cell-based, human
Protocol: Insulin-resistant HepG2 cells were exposed to different concentrations of 1–3 or rosiglitazone (10 μM) in 24-well plates. After 24 h of incubation with samples, the media in the wells was replaced with 100 nM insulin diluted in SFMEM and incubated at 37 °C for 30 min. Cells were then washed twice with ice-cold PBS, collected, and lysed with sample buffer (50 mM HEPES, pH 7.5, 150 mM NaCl, 2.5 mM EDTA, 0.5% NP-40, 1 mM PMSF, 1 mM DTT, 0.2% aprotinin, 0.5% leupeptin, 20 mM NaF, and 1 mM Na3VO4). Protein was quantified by the modified Bradford protein assay kit using BSA as a standard. Total protein (50 μg) was electrophoresed on sodium dodecyl sulfate-polyacrylamide gels (Bio-Rad, Hercules, CA, USA) and then transferred to polyvinylidene difluoride (PVDF) membranes (Immobilon-P; Millipore, Burlington, MA, USA) using the Pierce G2 Fast Blotter (Thermo Fisher Scientific Inc., Fair Lawn, NJ, USA) at 100 V for 60 min in a standard semi-dry system. Membranes were blocked in blocking buffer (5% skim milk powder in TBS-Tween buffer containing 10 mM Tris, 100 mM NaCl, and 0.1% Tween-20, pH 7.4) and incubated overnight with primary antibodies at 4 °C on a shaker, followed by incubation with appropriate secondary antibodies for 2 h at room temperature. The membranes were washed three times with TBST (3 × 10 min each) and the protein bands were visualized with the Supersignal West Pico Chemiluminescence Substrate (Pierce, Rockford, IL, USA) on X-ray films (Kodak, Rochester, NY, USA) and quantitated using CS analyzer software (Atto Corp., Tokyo, Japan).

[3] = molecular target: T1, PTP1B (human recombinant) (Homo sapiens, UniProt P18031); assay: PTP1B inhibitory assay (pNPP substrate) and kinetic study; format: biochemical; details: for Ki: Dixon plot, read-out: Protein Tyrosine Phosphatase 1B Ki; for Protein Tyrosine Phosphatase 1B Inhibition Type: Lineweaver-Burk plot; for IC50: pNPP substrate, mean ± SEM of triplicate experiments, read-out: Protein Tyrosine Phosphatase 1B IC50
T1 construct: purchased Biomol International LP (Plymouth Meeting, PA, USA)
T1 sequence (P18031 1-435): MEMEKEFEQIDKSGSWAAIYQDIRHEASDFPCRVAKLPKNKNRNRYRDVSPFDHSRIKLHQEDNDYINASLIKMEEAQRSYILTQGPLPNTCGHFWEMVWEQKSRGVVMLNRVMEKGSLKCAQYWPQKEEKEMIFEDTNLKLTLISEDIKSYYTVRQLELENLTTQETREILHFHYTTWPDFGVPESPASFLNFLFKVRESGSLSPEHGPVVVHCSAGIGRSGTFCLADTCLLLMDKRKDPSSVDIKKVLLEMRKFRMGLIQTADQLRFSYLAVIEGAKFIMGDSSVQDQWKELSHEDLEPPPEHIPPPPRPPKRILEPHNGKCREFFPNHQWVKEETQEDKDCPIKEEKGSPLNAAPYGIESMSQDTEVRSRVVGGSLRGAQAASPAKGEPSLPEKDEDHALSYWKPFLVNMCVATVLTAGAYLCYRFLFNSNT
Protocol: PTP1B inhibitory activity was evaluated using pNPP [44]. Recombinant PTP1B enzyme (0.5 units diluted in PTP1B reaction buffer) was added to a plate with or without sample. The plate was pre-incubated at 37 °C for 10 min, and then substrate (2 mM pNPP) was added. Following incubation at 37 °C for 15 min, the enzymatic reaction was terminated by addition of 10 M NaOH. The absorbance was measured at 405 nm using a microplate spectrophotometer (Molecular Devices, Sunnyvale, CA, USA).
(§2) Lineweaver–Burk plots for inhibition of PTP1B were obtained in the presence of various concentrations of the test compounds (0, 0.18, 0.44 and 1.78 μM for 1; 0, 0.27, 0.54, and 1.07 μM for 2; 0, 0.87, 1.44, and 2.89 μM for 3). Similarly, for the inhibition of α-glucosidase, text concentrations used were 0, 0.71, 1.07, and 1.78 μM for 1; 0, 0.36, 0.9, and 1.79 μM for 2 and 0, 0.72, 2.88, and 5.77 μM for 3. The enzymatic procedure consisted of the same aforementioned assay method. The inhibition constants (Ki) were determined via interpretation of the Dixon plots, where the value of the x-axis implies −Ki.

α-glucosidase = assay: α-Glucosidase inhibitory assay (pNPG substrate) and kinetic study; format: biochemical; details: for Ki: Dixon plot; for α-Glucosidase Inhibition Type: Lineweaver-Burk plot; for IC50: pNPG substrate, mean ± SEM of triplicate experiments
Protocol: The enzyme inhibition study was carried out spectrophotometrically using the procedure previously reported. The α-glucosidase activity was determined by measuring release of […] at 405 nm using a microplate spectrophotometer (Molecular Devices).
as §2

| Compound | viability at 10 µM [1] | relative glucose uptake percentage ([2]; 5 µM) | PTP1B expression (PTP1B expression; 2.5 and 5 μM) | Ki [3] | Protein Tyrosine Phosphatase 1B Inhibition Type [3] | IC50 [3] | Ki (α-glucosidase) | α-Glucosidase Inhibition Type (α-glucosidase) | IC50 (α-glucosidase) | PTP1B expression (PTP1B expression; concentration dependent) | relative % glucose uptake ([2]; 10 µM) | PTP1B expression (PTP1B expression; 10 μM) |
| --- | --- | --- | --- | --- | --- | --- | --- | --- | --- | --- | --- | --- |
| CC1=C[C@H]2c3c(O)cc(-c4cc5ccc(O)cc5o4)cc3O[C@@]3(c4ccc(O)cc4O)Oc4cc(O)ccc4[C@H](C1)[C@@H]23 [Compound 1, mulberrofuran G] | 36% | 140% | diminished the PTP1B expression almost completely | 0.7 µM | Mixed type | 0.57 ± 0.04 µM | 1.2 µM | Mixed type | 1.67 ± 0.02 µM |  |  |  |
| CC(C)=CCc1c(-c2ccc(O)cc2O)oc2c([C@H]3C=C(C)C[C@@H](c4ccc(O)cc4O)[C@@H]3C(=O)c3ccc(O)cc3O)c(O)cc(O)c2c1=O [Compound 3, kuwanon G] | 85% |  |  | 1.98 µM | Mixed type | 2.26 ± 0.03 µM | 2.51 µM | Mixed type | 2.35 ± 0.03 µM | downregulated the expression towards normal |  |  |
| Cc1cc2c3c(c1)-c1c(O)cc(-c4cc5ccc(O)cc5o4)cc1O[C@@]3(c1ccc(O)cc1O)Oc1cc(O)ccc1-2 [Compounds 2] | 73% |  |  | 1.02 µM |  | 0.8 ± 0.02 µM |  |  |  |  |  |  |
| CN(CCOc1ccc(CC2SC(=O)NC2=O)cc1)c1ccccn1 (stereo not shown) [rosiglitazone, reference compound] |  |  |  |  |  |  |  |  |  |  | 123% | declined |
